# From article PMC9695041, “The Anti-Breast Cancer Activity of Dihydroartemisinin-5-methylisatin Hybrids Tethered via Different Carbon Spacers” (Molecules, 2022)
# What was measured:
# [1] = system: MDA-MB-231 breast cancer cell line; experiment: MTT antiproliferative assay, MDA-MB-231; type: cell-based; details: for IC50: Homo sapiens, MDA-MB-231, MTT assay
# Method: (§1) The antiproliferative activity and cytotoxicity of DHA-5-methylisatin hybrids 6a–c and 7a–m against MCF-7, MDA-MB-231, MCF-7/ADR, and MDA-MB-231/ADR (Purchased from Procell) breast cancer cell lines as well as MCF-10A were assessed by 3-(4,5-dimethylthiazol-2-yl)-2,5-diphenyltetrazolium bromide (MTT) assay.
# (§2) MCF-7, MDA-MB-231, MCF-7/ADR, and MDA-MB-231/ADR breast cancer cell lines (2 × 10^3) were plated in each well of a 96-well plate and were allowed to adhere and spread for 24 h. The dihydroartemisinin-5-methylisatin hybrids 6a–e and 7a–m were added to a final concentration of 100 µM, and the cells were cultured for 24 h at 37 °C. 3-(4,5-dimethyl-2-thiazolyl)-2,5-diphenyltetrazolium bromide (MTT) solution (10 µL) was added to each well, and the cultures were incubated for an additional 4 h. A further 100 µL of MTT solution was added and incubation continued overnight. The absorbance at 540 nm was determined in each well with a 96-well plate reader. The growth of the treated cells was compared with that of untreated cells.
# [2] = system: MCF-7 breast cancer cell line; experiment: MTT antiproliferative assay, MCF-7; type: cell-based; details: for IC50: Homo sapiens, MCF7, MCF-7, MTT assay
# Method: as §1, §2
# [3] = system: MDA-MB-231/ADR breast cancer cell line; experiment: MTT antiproliferative assay, MDA-MB-231/ADR; type: cell-based; details: Homo sapiens, MDA-MB-231/ADR (drug-resistant)
# Method: as §1, §2
# [4] = system: MCF-7/ADR breast cancer cell line; experiment: MTT antiproliferative assay, MCF-7/ADR; type: cell-based; details: Homo sapiens, NCI/ADR-RES, MCF-7/ADR (drug-resistant)
# Method: as §1, §2
# [5] = MTT cytotoxicity assay, MCF-10A; details: human, MCF-10A normal breast cells
# Method: as §1, §2
SMILES,IC50 [1] [µM],IC50 [2] [µM],IC50 [3] [µM],IC50 [4] [µM],IC50 at 24 h [5] [µM],SI2: selectivity index IC50(MCF-10A)/IC50(MDA-MB-231) [1],SI1: selectivity index IC50(MCF-10A)/IC50(MCF-7) [2]
"Cc1ccc2c(c1)C(=NOCc1ccccc1)C(=O)N2CCOC1O[C@@H]2O[C@@]3(C)CC[C@H]4[C@H](C)CC[C@@H]([C@H]1C)[C@@]24OO3 (stereo partly drawn) [Hybrid 7k, 3-((Benzyloxy)imino)-5-methyl-1-(2-(((3R,5aS,6R,8aS,9R,12R,12aR)-3,6,9-trimethyldecahydro-12H-3,12-epoxy[1,2]dioxepino[4,3-i]isochromen-10-yl)oxy)ethyl)indolin-2-one]",> 100,> 100,> 100,> 100,> 100,,
"Cc1ccc2c(c1)C(=O)C(=O)N2CCOC1O[C@@H]2O[C@@]3(C)CC[C@H]4[C@H](C)CC[C@@H]([C@H]1C)[C@@]24OO3 (stereo partly drawn) [Hybrid 6a, 5-Methyl-1-(2-(((3R,5aS,6R,8aS,9R,12R,12aR)-3,6,9-trimethyldecahydro-12H-3,12-epoxy[1,2]dioxepino[4,3-i]isochromen-10-yl)oxy)ethyl)indoline-2,3-dione]",29.1,31.7,26.9,25.3,> 100,>3.43,>3.15
"Cc1ccc2c(c1)C(=NO)C(=O)N2CCCCOC1O[C@@H]2O[C@@]3(C)CC[C@H]4[C@H](C)CC[C@@H]([C@H]1C)[C@@]24OO3 (stereo partly drawn) [Hybrid 7c, 3-(Hydroxyimino)-5-methyl-1-(4-(((3R,5aS,6R,8aS,9R,12R,12aR)-3,6,9-trimethyldecahydro-12H-3,12-epoxy[1,2]dioxepino[4,3-i]isochromen-10-yl)oxy)butyl)indolin-2-one]",26.7,22.1,28.5,23.4,> 100,>3.83,>4.52
"Cc1ccc2c(c1)C(=NNC(N)=S)C(=O)N2CCCOC1O[C@@H]2O[C@@]3(C)CC[C@H]4[C@H](C)CC[C@@H]([C@H]1C)[C@@]24OO3 (stereo partly drawn) [Hybrid 7f, 2-(5-Methyl-2-oxo-1-(3-(((3R,5aS,6R,8aS,9R,12R,12aR)-3,6,9-trimethyldecahydro-12H-3,12-epoxy[1,2]dioxepino[4,3-i]isochromen-10-yl)oxy)propyl)indolin-3-ylidene)hydrazine-1-carbothioamide]",48.2,46.7,51.1,36.4,> 100,>2.07,>2.14
"Cc1ccc2c(c1)C(=NOCc1ccccc1)C(=O)N2CCCCOC1O[C@@H]2O[C@@]3(C)CC[C@H]4[C@H](C)CC[C@@H]([C@H]1C)[C@@]24OO3 (stereo partly drawn) [Hybrid 7m, 3-((Benzyloxy)imino)-5-methyl-1-(4-(((3R,5aS,6R,8aS,9R,12R,12aR)-3,6,9-trimethyldecahydro-12H-3,12-epoxy[1,2]dioxepino[4,3-i]isochromen-10-yl)oxy)butyl)indolin-2-one]",> 100,> 100,> 100,> 100,> 100,,
"Cc1ccc2c(c1)C(=NNC(N)=S)C(=O)N2CCCCOC1O[C@@H]2O[C@@]3(C)CC[C@H]4[C@H](C)CC[C@@H]([C@H]1C)[C@@]24OO3 (stereo partly drawn) [Hybrid 7g, 2-(5-Methyl-2-oxo-1-(4-(((3R,5aS,6R,8aS,9R,12R,12aR)-3,6,9-trimethyldecahydro-12H-3,12-epoxy[1,2]dioxepino[4,3-i]isochromen-10-yl)oxy)butyl)indolin-3-ylidene)hydrazine-1-carbothioamide]",35.1,28.9,40.6,30.3,> 100,>2.84,>3.46
"Cc1ccc2c(c1)C(=NNC(N)=O)C(=O)N2CCCCOC1O[C@@H]2O[C@@]3(C)CC[C@H]4[C@H](C)CC[C@@H]([C@H]1C)[C@@]24OO3 (stereo partly drawn) [Hybrid 7e, 2-(5-Methyl-2-oxo-1-(4-(((3R,5aS,6R,8aS,9R,12R,12aR)-3,6,9-trimethyldecahydro-12H-3,12-epoxy[1,2]dioxepino[4,3-i]isochromen-10-yl)oxy)butyl)indolin-3-ylidene)hydrazine-1-carboxamide]",31.2,39,34.5,42.1,> 100,>3.20,>2.56
"Cc1ccc2c(c1)C(=O)C(=O)N2CCCCOC1O[C@@H]2O[C@@]3(C)CC[C@H]4[C@H](C)CC[C@@H]([C@H]1C)[C@@]24OO3 (stereo partly drawn) [Hybrid 6c, 5-Methyl-1-(4-(((3R,5aS,6R,8aS,9R,12R,12aR)-3,6,9-trimethyldecahydro-12H-3,12-epoxy[1,2]dioxepino[4,3-i]isochromen-10-yl)oxy)butyl)indoline-2,3-dione]",42.3,59.7,44.5,49.9,> 100,>2.36,>1.67
"C[C@@H]1CC[C@H]2[C@@H](C)C(=O)O[C@@H]3O[C@@]4(C)CC[C@@H]1[C@]32OO4 [ART, Artemisinin]",,,> 100,> 100,> 100,>1.38,>1.14
"Cc1ccc2c(c1)C(=NO)C(=O)N2CCCOC1O[C@@H]2O[C@@]3(C)CC[C@H]4[C@H](C)CC[C@@H]([C@H]1C)[C@@]24OO3 (stereo partly drawn) [Hybrid 7b, 3-(Hydroxyimino)-5-methyl-1-(3-(((3R,5aS,6R,8aS,9R,12R,12aR)-3,6,9-trimethyldecahydro-12H-3,12-epoxy[1,2]dioxepino[4,3-i]isochromen-10-yl)oxy)propyl)indolin-2-one]",42.6,30.3,36.4,28.7,> 100,>2.34,>3.30
"CCON=C1C(=O)N(CCOC2O[C@@H]3O[C@@]4(C)CC[C@H]5[C@H](C)CC[C@@H]([C@H]2C)[C@@]35OO4)c2ccc(C)cc21 (stereo partly drawn) [Hybrid 7i, 3-(Ethoxyimino)-5-methyl-1-(2-(((3R,5aS,6R,8aS,9R,12R,12aR)-3,6,9-trimethyldecahydro-12H-3,12-epoxy[1,2]dioxepino[4,3-i]isochromen-10-yl)oxy)ethyl)indolin-2-one]",70.4,69.3,72.7,61.8,> 100,>1.42,>1.44
"Cc1ccc2c(c1)C(=O)C(=O)N2CCCOC1O[C@@H]2O[C@@]3(C)CC[C@H]4[C@H](C)CC[C@@H]([C@H]1C)[C@@]24OO3 (stereo partly drawn) [Hybrid 6b, 5-Methyl-1-(3-(((3R,5aS,6R,8aS,9R,12R,12aR)-3,6,9-trimethyldecahydro-12H-3,12-epoxy[1,2]dioxepino[4,3-i]isochromen-10-yl)oxy)propyl)indoline-2,3-dione]",> 100,> 100,> 100,87.4,> 100,,
"C[C@H]1[C@@H](O)O[C@@H]2O[C@@]3(C)CC[C@H]4[C@H](C)CC[C@@H]1[C@@]24OO3 [DHA, Dihydroartemisinin]",,,,79.1,> 100,>1.43,>1.36
